Patent US20260092076A1, “NOVEL COMPOUNDS” (Hoffmann-La Roche Inc., priority 2023, published 2026)
Counter-ions that a name gives are not always drawn. Values belong to the molecule of their own block, whether it stands above or below them.

Experiments:
[1] = molecular target: T1, NLRP3 (Homo sapiens, UniProt Q96P20); assay: Human whole blood IL-1β release assay; assay type: cell-based; conditions: human whole blood with 1 μg/ml LPS, compound 3 hours, nigericin 10 μM 1 hr, IL-1β by AlphaLisa
Protocol: For systemic delivery, the ability to inhibit NLRP3 when the compounds are present within the bloodstream is of great importance. For this reason, the NLRP3 inhibitory activity of a number of compounds in human whole blood was investigated in accordance with the following protocol. • Human whole blood in Li-heparin tubes was obtained from healthy donors from a volunteer donor panel. • Plate out 80 μl of whole blood containing 1 μg/ml of LPS in 96-well, clear bottom cell culture plate (Corning #3585) • Add 10 μl compound (8 points half-log dilution with 10 μM top dose) or vehicle (DMSO 0.1% FAC) to the appropriate wells • Incubate for 3 hours at 37° C., 5% CO2 • Add 10 μl nigericin (Sigma #N7143) (10 μM FAC) to all wells • Incubate for 1 hr at 37° C., 5% CO2 • At the end of the incubation period, spin plates at 300×g for 5 mins to pellet cells and remove 20 μl of supernatant and add to 96-well v-bottom plates for IL-1β analysis (note: these plates containing the supernatants can be stored at −80° C. to be analysed at a later date) • IL-1β was measured according to the manufacturer protocol (Perkin Elmer-AlphaLisa IL-1 Kit AL220F-5000) • IC50 data is fitted to a non-linear regression equation (log inhibitor vs response-variable slope 4-parameters)

[2] = molecular target: T1, NLRP3; assay: THP-1 cells pyroptosis assay; assay type: cell-based; set-up: Seed THP-1 cells (25,000 cells/well) containing 1.0 μg/ml LPS in 40 μl of RPMI medium; host or cells: THP-1 cells, LPS-primed, nigericin-stimulated; conditions: THP-1 cells with 1.0 μg/ml LPS, compound 3 hours, nigericin 5 μM 1 hr, resazurin readout
Protocol: THP-1 cells (ATCC #TIB-202) were grown in RPMI containing L-glutamine (Gibco #11835) supplemented with 1 mM sodium pyruvate (Sigma #S8636) and penicillin (100 units/ml)/streptomycin (0.1 mg/ml) (Sigma #P4333) in 10% Fetal Bovine Serum (FBS) (Sigma #F0804). The cells were routinely passaged and grown to confluency (˜10^6 cells/ml). On the day of the experiment, THP-1 cells were harvested and resuspended into RPMI medium (without FBS). The cells were then counted and viability (>90%) checked by Trypan blue (Sigma #T8154). Appropriate dilutions were made to give a concentration of 625,000 cells/ml. To this diluted cell solution was added LPS (Sigma #L4524) to give a 1 μg/ml Final Assay Concentration (FAC). 40 μl of the final preparation was aliquoted into each well of a 96-well plate. The plate thus prepared was used for compound screening.
The following method step-by-step assay was followed for compound screening. • Seed THP-1 cells (25,000 cells/well) containing 1.0 μg/ml LPS in 40 μl of RPMI medium (without FBS) in 96-well, black walled, clear bottom cell culture plates coated with poly-D-lysine (VWR #734-0317) • Add 5 μl compound (8 points half-log dilution, with 10 μM top dose) or vehicle (DMSO 0.1% FAC) to the appropriate wells • Incubate for 3 hours at 37° C., 5% CO2 • Add 5 μl nigericin (Sigma #N7143) (FAC 5 μM) to all wells • Incubate for 1 hr at 37° C., 5% CO2 • At the end of the incubation period, spin plates at 300×g for 3 mins and remove supernatant • Then add 50 μl of resazurin (Sigma #R7017) (FAC 100 μM resazurin in RPMI medium without FBS) and incubate plates for a further 1-2 hours at 37° C. and 5% CO2 • Plates were read in an Envision reader at Ex 560 nm and Em 590 nm • IC50 data is fitted to a non-linear regression equation (log inhibitor vs response-variable slope 4-parameters)

T1 sequence (Q96P20 whole entry): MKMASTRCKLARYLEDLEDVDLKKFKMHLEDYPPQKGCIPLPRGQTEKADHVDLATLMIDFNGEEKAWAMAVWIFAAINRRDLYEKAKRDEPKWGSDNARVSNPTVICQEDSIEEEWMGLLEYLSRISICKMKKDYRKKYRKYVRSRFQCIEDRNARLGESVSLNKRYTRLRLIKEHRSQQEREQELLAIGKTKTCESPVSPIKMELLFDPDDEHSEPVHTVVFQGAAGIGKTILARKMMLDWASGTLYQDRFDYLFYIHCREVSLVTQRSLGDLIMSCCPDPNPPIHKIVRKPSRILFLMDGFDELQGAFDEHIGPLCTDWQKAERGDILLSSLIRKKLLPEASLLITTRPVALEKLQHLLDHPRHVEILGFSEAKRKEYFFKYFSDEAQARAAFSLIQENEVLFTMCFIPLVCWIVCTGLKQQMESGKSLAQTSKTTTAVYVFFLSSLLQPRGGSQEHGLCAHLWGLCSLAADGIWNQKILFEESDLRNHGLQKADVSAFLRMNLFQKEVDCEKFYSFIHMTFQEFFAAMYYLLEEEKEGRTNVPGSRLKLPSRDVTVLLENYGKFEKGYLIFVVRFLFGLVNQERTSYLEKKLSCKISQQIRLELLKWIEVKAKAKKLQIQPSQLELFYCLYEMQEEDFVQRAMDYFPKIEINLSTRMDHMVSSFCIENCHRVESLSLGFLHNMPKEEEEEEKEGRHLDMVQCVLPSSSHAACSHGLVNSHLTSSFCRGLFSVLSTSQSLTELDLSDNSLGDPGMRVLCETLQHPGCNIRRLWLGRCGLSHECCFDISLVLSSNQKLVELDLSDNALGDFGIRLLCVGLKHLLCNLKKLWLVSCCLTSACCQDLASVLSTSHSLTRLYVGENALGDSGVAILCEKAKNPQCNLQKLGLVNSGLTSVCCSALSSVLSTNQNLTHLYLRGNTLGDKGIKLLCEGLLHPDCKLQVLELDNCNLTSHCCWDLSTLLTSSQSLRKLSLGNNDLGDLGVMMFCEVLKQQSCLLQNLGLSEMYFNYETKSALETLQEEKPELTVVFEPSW

Compound: Cc1cc(Cl)cc(O)c1-c1ccc2oc(N3Cc4ccccc4C3)nc2n1 [Example 6, 5-Chloro-2-(2-isoindolin-2-yloxazolo[4,5-b]pyridin-5-yl)-3-methyl-phenol]
IC50 [2]: 90 nM

Compound: Cc1cc(Cl)cc(O)c1-c1ccc2oc(N3Cc4cccc(F)c4C3)nc2n1 [Example 9, 5-Chloro-2-[2-(4-fluoroisoindolin-2-yl)oxazolo[4,5-b]pyridin-5-yl]-3-methyl-phenol]
IC50 [2]: 263 nM

Compound: Cc1cc(C#N)cc(O)c1-c1ccc2oc(N3Cc4ccncc4C3)nc2n1 [Example 10, 4-[2-(1,3-Dihydropyrrolo[3,4-c]pyridin-2-yl)oxazolo[4,5-b]pyridin-5-yl]-3-hydroxy-5-methyl-benzonitrile]
IC50 [1]: 2230 nM
IC50 [2]: 29 nM

Compound: Cc1ncc2c(n1)CCN(c1nc3nc(-c4c(C)cc(Cl)cc4O)ccc3o1)C2 [Example 11, 5-Chloro-3-methyl-2-[2-(2-methyl-7,8-dihydro-5H-pyrido[4,3-d]pyrimidin-6-yl)oxazolo[4,5-b]pyridin-5-yl]phenol]
IC50 [1]: 225 nM
IC50 [2]: 27.1 nM

Compound: Cc1cc(Cl)cc(O)c1-c1ccc2oc(N3Cc4cncnc4C3)nc2n1 [Example 13, 5-Chloro-2-[2-(5,7-dihydropyrrolo[3,4-d]pyrimidin-6-yl)oxazolo[4,5-b]pyridin-5-yl]-3-methyl-phenol formic acid salt]
IC50 [1]: 304 nM
IC50 [2]: 15 nM

Compound: Cc1cc(Cl)cc(O)c1-c1ccc2oc(N3CCc4ccncc4C3)nc2n1 [Example 15, 5-Chloro-2-[2-(3,4-dihydro-1H-2,7-naphthyridin-2-yl)oxazolo[4,5-b]pyridin-5-yl]-3-methyl-phenol]
IC50 [1]: 173 nM
IC50 [2]: 10.5 nM

Compound: Cc1cc(C#N)cc(O)c1-c1ccc2oc(N3Cc4ccccc4C3)nc2n1 [Example 16, 3-Hydroxy-4-(2-isoindolin-2-yloxazolo[4,5-b]pyridin-5-yl)-5-methyl-benzonitrile]
IC50 [2]: 66 nM

Compound: Cc1cc(C#N)cc(O)c1-c1ccc2oc(N3CCc4ncncc4C3)nc2n1 [Example 17, 4-[2-(7,8-Dihydro-5H-pyrido[4,3-d]pyrimidin-6-yl)oxazolo[4,5-b]pyridin-5-yl]-3-hydroxy-5-methyl-benzonitrile]
IC50 [1]: 225 nM
IC50 [2]: 34.9 nM

Compound: Cc1cc(Cl)cc(O)c1-c1ccc2oc(N3CCc4c(C#N)cccc4C3)nc2n1 [Example 33, 2-(5-(4-Chloro-2-hydroxy-6-methylphenyl)oxazolo[4,5-b]pyridin-2-yl)-1,2,3,4-tetrahydroisoquinoline-5-carbonitrile]
IC50 [2]: 447 nM

Compound: COc1cccc2c1CCN(c1nc3nc(-c4c(C)cc(Cl)cc4O)ccc3o1)C2 [Example 34, 5-chloro-2-[2-(5-methoxy-3,4-dihydro-1H-isoquinolin-2-yl)oxazolo[4,5-b]pyridin-5-yl]-3-methyl-phenol]
IC50 [2]: 675 nM

Compound: Cc1cc(Cl)cc(O)c1-c1ccc2oc(N3CCc4ccc(F)cc4C3)nc2n1 [Example 35, 5-Chloro-2-[2-(7-fluoro-3,4-dihydro-1H-isoquinolin-2-yl)oxazolo[4,5-b]pyridin-5-yl]-3-methyl-phenol]
IC50 [2]: 236 nM

Compound: Cc1cc(Cl)cc(O)c1-c1ccc2oc(N3CCc4nccnc4C3)nc2n1 [Example 40, 5-Chloro-2-[2-(7,8-dihydro-5H-pyrido[3,4-b]pyrazin-6-yl)oxazolo[4,5-b]pyridin-5-yl]-3-methyl-phenol]
IC50 [2]: 71.6 nM

Compound: Cc1cc(Cl)cc(O)c1-c1ccc2oc(N3Cc4ccc5c(c4C3)OCO5)nc2n1 [Example 42, 5-Chloro-2-(2-(6,8-dihydro-7H-[1,3]dioxolo[4,5-e]isoindol-7-yl)oxazolo[4,5-b]pyridin-5-yl)-3-methylphenol]
IC50 [2]: 144 nM

More lines, now with the values ahead:

IC50 [1]: 108 nM
IC50 [2]: 0.7 nM
Compound: Cc1cc(C(F)(F)F)cc(O)c1-c1ccc2oc(N3Cc4c[nH]c(=O)cc4C3)nc2n1 [Example 1, 2-[5-[2-Hydroxy-6-methyl-4-(trifluoromethyl)phenyl]oxazolo[4,5-b]pyridin-2-yl]-3,5-dihydro-1H-pyrrolo[3,4-c]pyridin-6-one]

IC50 [1]: 301 nM
IC50 [2]: 3.3 nM
Compound: Cc1cc(C(F)(F)F)cc(O)c1-c1ccc2oc(N3Cc4cc(=O)n(C)cc4C3)nc2n1 [Example 2, 2-[5-[2-Hydroxy-6-methyl-4-(trifluoromethyl)phenyl]oxazolo[4,5-b]pyridin-2-yl]-5-methyl-1,3-dihydropyrrolo[3,4-c]pyridin-6-one]

IC50 [1]: 117 nM
IC50 [2]: 7.7 nM
Compound: Cc1cc(C#N)cc(O)c1-c1ccc2oc(N3Cc4c[nH]c(=O)cc4C3)nc2n1 [Example 3, 3-Hydroxy-5-methyl-4-[2-(6-oxo-3,5-dihydro-1H-pyrrolo[3,4-c]pyridin-2-yl)oxazolo[4,5-b]pyridin-5-yl]benzonitrile]

IC50 [1]: 77 nM
IC50 [2]: 1.7 nM
Compound: Cc1cc(Cl)cc(O)c1-c1ccc2oc(N3Cc4c[nH]c(=O)cc4C3)nc2n1 [Example 4, 2-[5-(4-Chloro-2-hydroxy-6-methyl-phenyl)oxazolo[4,5-b]pyridin-2-yl]-3,5-dihydro-1H-pyrrolo[3,4-c]pyridin-6-one]

IC50 [1]: 151 nM
IC50 [2]: 2.6 nM
Compound: Cc1cc(C(F)(F)F)cc(O)c1-c1ccc2oc(N3Cc4cc(=O)n(CCO)cc4C3)nc2n1 [Example 5, 5-(2-Hydroxyethyl)-2-[5-[2-hydroxy-6-methyl-4-(trifluoromethyl)phenyl]oxazolo[4,5-b]pyridin-2-yl]-1,3-dihydropyrrolo[3,4-c]pyridin-6-one]

IC50 [1]: 487 nM
IC50 [2]: 9.5 nM
Compound: Cc1cc(Cl)cc(O)c1-c1ccc2oc(N3Cc4ccncc4C3)nc2n1 [Example 7, 5-chloro-2-[2-(1,3-dihydropyrrolo[3,4-c]pyridin-2-yl)oxazolo[4,5-b]pyridin-5-yl]-3-methyl-phenol]

IC50 [2]: 69.9 nM
Compound: Cc1cc(Cl)cc(O)c1-c1ccc2oc(N3Cc4ccc(O)cc4C3)nc2n1 [Example 8, 2-[5-(4-Chloro-2-hydroxy-6-methyl-phenyl)oxazolo[4,5-b]pyridin-2-yl]isoindolin-5-ol]

IC50 [1]: 840 nM
IC50 [2]: 2 nM
Compound: COc1cc2c(cn1)CN(c1nc3nc(-c4c(C)cc(C(F)(F)F)cc4O)ccc3o1)C2 [Example 12, 2-[2-(6-Methoxy-1,3-dihydropyrrolo[3,4-c]pyridin-2-yl)oxazolo[4,5-b]pyridin-5-yl]-3-methyl-5-(trifluoromethyl)phenol]

IC50 [1]: 305 nM
IC50 [2]: 56.2 nM
Compound: Cc1cc(Cl)cc(O)c1-c1ccc2oc(N3Cc4c[nH]nc4C3)nc2n1 [Example 14, 5-Chloro-2-[2-(4,6-dihydro-2H-pyrrolo[3,4-c]pyrazol-5-yl)oxazolo[4,5-b]pyridin-5-yl]-3-methyl-phenol]

IC50 [1]: 3720 nM
Compound: Cc1cc(C(F)(F)F)cc(O)c1-c1ccc2oc(N3Cc4nccnc4C3)nc2n1 [Example 23, 2-[2-(5,7-Dihydropyrrolo[3,4-b]pyrazin-6-yl)oxazolo[4,5-b]pyridin-5-yl]-3-methyl-5-(trifluoromethyl)phenol]

IC50 [2]: 174 nM
Compound: Cc1cc(C(F)(F)F)cc(O)c1-c1ccc2oc(N3CCc4nc[nH]c(=O)c4C3)nc2n1 [Example 41, 6-[5-[2-Hydroxy-6-methyl-4-(trifluoromethyl)phenyl]oxazolo[4,5-b]pyridin-2-yl]-3,5,7,8-tetrahydropyrido[4,3-d]pyrimidin-4-one]

IC50 [2]: 245 nM
Compound: Cc1cc(C(F)(F)F)cc(O)c1-c1ccc2oc(N3Cc4[nH]c(=O)[nH]c(=O)c4C3)nc2n1 [Example 44, 6-[5-[2-Hydroxy-6-methyl-4-(trifluoromethyl)phenyl]oxazolo[4,5-b]pyridin-2-yl]-5,7-dihydro-1H-pyrrolo[3,4-d]pyrimidine-2,4-dione]
